Results on 61 molecules are retold here after the CATMoS acute toxicity set (Mansouri et al. 2021).

A short description of this data set: rat acute oral toxicity. The conditions noted are these: in vivo.
In general, LD50 refers to the dose expected to kill half of the subjects tested. Higher therefore signals a less toxic substance. As to `c1ccc2[nH]nnc2c1`, the LD50 stood at 500 mg/kg.
With `Nc1nc(N)nc(N)n1` the figure was 3160 mg/kg.
With `CC1OC(=O)C(C)OC1=O` (stereo unspecified) the figure was 3540 mg/kg.
With `N[C@@H](CCC(=O)O)C(=O)O` the figure was 15800 mg/kg; with `NC(N)=O`, 8470 mg/kg; with `Nc1ccc(S(=O)(=O)O)cc1`, 12300 mg/kg.
In turn, `CCCCCCCC/C=C\CCCCCCCC(=O)O` displayed an LD50 of 25000 mg/kg.
With `CCC[C@@H]1C[C@@H](C(=O)N[C@@H]([C@H]2O[C@H](SC)[C@H](O)[C@@H](O)[C@H]2O)[C@@H](C)O)N(C)C1` the figure was 1000 mg/kg; with `CC(=O)O`, 1940 mg/kg; with `Oc1ccccc1`, 317 mg/kg.
With `O=C1CCCCCN1` the figure was 1200 mg/kg; with `OCC(O)CO`, 9080 mg/kg.
Regarding `O=S(=O)(O)c1cc(Nc2nc(Nc3ccccc3)nc(N(CCO)CCO)n2)ccc1/C=C/c1ccc(Nc2nc(Nc3ccccc3)nc(N(CCO)CCO)n2)cc1S(=O)(=O)O`, the LD50 was determined as 12100 mg/kg.
Then `NCCNCCNCCNCCN`, with 2100 mg/kg; and `Cc1ccc(S(=O)(=O)O)cc1`, with 400 mg/kg.
Then `CCN(CC)CC`, with 460 mg/kg.
Then `C=CN1CCCC1=O`, with 1020 mg/kg; and `C1CC2OC2CC1C1CO1` (stereo unspecified), with 2130 mg/kg; and `Cn1cnc2c1c(=O)[nH]c(=O)n2C`, with 950 mg/kg.
In turn, `COCCCNc1nc(NCCCOC)nc(SC)n1` registered an LD50 of 1400 mg/kg.
With `CC(=O)CC(C)=O` the figure was 570 mg/kg.
With `ClC1=C(Cl)C2(Cl)C3C(Cl)C=CC3C1(Cl)C2(Cl)Cl` (stereo unspecified) the figure was 40 mg/kg; with `Cc1nc(N(C)C)nc(OC(=O)N(C)C)c1C`, 100 mg/kg.
With `C=C(C)C(=O)O` the figure was 1060 mg/kg; with `C[C@@H](O)C(=O)O`, 3540 mg/kg; with `O=c1oc2ccccc2c(O)c1C1CC(c2ccc(-c3ccc(Br)cc3)cc2)Cc2ccccc21` (stereo unspecified), 0.16 mg/kg.
In turn, `C=CC(=O)OCCCC` displayed an LD50 of 900 mg/kg.
With `O=S(=O)(C(Cl)(Cl)Cl)C(Cl)(Cl)Cl` the figure was 535 mg/kg; with `C=CCCC`, 4600 mg/kg; with `C[Si](C)(C)N[Si](C)(C)C`, 847 mg/kg.
In the case of `CC(COC(=O)c1ccccc1)OC(=O)c1ccccc1` (stereo unspecified), the LD50 was 2660 mg/kg.
Then `O=C(O)c1c(Cl)ccc(Cl)c1Cl`, with 650 mg/kg; and `CCCCCC1CCC(=O)O1` (stereo unspecified), with 6600 mg/kg; and `Cc1ccccc1O`, with 121 mg/kg.
Then `C=CC(=O)OCC1CO1` (stereo unspecified), with 150 mg/kg; and `CCOC(=O)CC(=O)C(F)(F)F`, with 765 mg/kg; and `CNC(=O)CC#N`, with 387 mg/kg.
With `O=C(OC1CCCCC1)c1ccccc1O`, the LD50 came to 3030 mg/kg.
Then `NC(=O)c1c(F)cccc1F`, with 1080 mg/kg; and `CN(C)C(CSC(N)=O)CSC(N)=O`, with 340 mg/kg.
In the case of `S=c1[nH]c(=S)[nH]c(=S)[nH]1`, the LD50 turned out to be 1180 mg/kg.
With `Clc1ccc(C(c2ccc(Cl)cc2)C(Cl)(Cl)Cl)cc1` the figure was 87 mg/kg; with `O=C1NC(=O)C2C3C(C(O)(c4ccccc4)c4ccccn4)=CC(C3=C(c3ccccc3)c3ccccn3)C12` (stereo unspecified), 3.8 mg/kg; with `CCOP(=S)(OCC)Oc1cc(C)nc(N(CC)CC)n1`, 140 mg/kg.
Turning to `c1ccc(OCC2CO2)cc1` (stereo unspecified), the LD50 was 2500 mg/kg.
Consider `CS(=O)(=O)Cl`, for which the LD50 amounted to 50 mg/kg.
As for `NC(=O)c1cccnc1`, the LD50 was found to be 3500 mg/kg.
Then `CCCCOCC(C)O` (stereo unspecified), with 2500 mg/kg.
The molecule `NCC1CCCC(CN)C1` (stereo unspecified) registered an LD50 of 880 mg/kg.
Then `CCOC(=O)C(C)Oc1ccc(Oc2nc3ccc(Cl)cc3o2)cc1` (stereo unspecified), with 2360 mg/kg.
With `Cc1ccc(N)cc1Cl` the figure was 302 mg/kg; with `CCCC(=O)O`, 1630 mg/kg.
As to `CCOc1ccc(NC(C)=O)cc1`, the LD50 stood at 1650 mg/kg.
With `O=C(O)/C=C/C(=O)O` the figure was 9300 mg/kg; with `COCCCN`, 598 mg/kg.
Then `CCCCCCCCCCCCCC[N+](C)(C)Cc1ccccc1`, with 281 mg/kg; and `Cc1ccc([N+](=O)[O-])c(C)c1`, with 1690 mg/kg; and `C#CCOC(=O)[C@@H](C)Oc1ccc(Oc2ncc(Cl)cc2F)cc1`, with 2230 mg/kg.
Then `O=C=Nc1ccc(Cl)c(Cl)c1`, with 91 mg/kg.
As to `Cc1cccc([N+](=O)[O-])c1`, the LD50 was 1070 mg/kg.
With `NCCO` the figure was 1720 mg/kg.
